In paper PMC6458156, “Improved predictions of time-dependent drug-drug interactions by determination of cytosolic drug concentrations” (Scientific Reports, 2019):
Where two headings read alike, the source gives them in different places.

Assays:
[1] = Non-specific binding of drugs in human liver microsomes (fu,mic), rapid equilibrium dialysis; assay type: in vitro ADME; details: unbound drug fraction in the microsomal mixture, inhibitor 1 µM, 37 °C
[2] = test system: CYP3A4; set-up: method as in earlier work; details: ref DIDB; cited from earlier work
[3] = test system: MATE1; details: read-out: IC50 (MATE1); ref DIDB; cited from earlier work
[4] = test system: OCT1; details: read-out: IC50 (OCT1); ref DIDB; cited from earlier work
[5] = test system: OCT2; details: read-out: IC50 (OCT2); ref DIDB; cited from earlier work
[6] = test system: CYP2D6; set-up: method as in earlier work; details: in HLM; ref DIDB; cited from earlier work
[7] = test system: OATP1A2; details: read-out: IC50 (OATP1A2); ref DIDB; cited from earlier work
[8] = test system: MATE2-K; details: read-out: IC50 (MATE2-K); ref DIDB; cited from earlier work
[9] = test system: P-gp; details: read-out: Ki (P-gp); ref DIDB; cited from earlier work
[10] = Intracellular fraction of unbound drug (fu,cell), dialysis of human hepatocyte homogenate; assay type: in vitro ADME; details: homogenate of cryopreserved human hepatocytes, geometrical mean ± SD of triplicates
[11] = test system: human hepatocytes; experiment: Intracellular drug accumulation ratio (Kp) and intracellular bioavailability (Fic) in cryopreserved human hepatocytes; assay type: in vitro ADME; details: intracellular bioavailability = fu,cell × Kp; human hepatocytes
[12] = as above; assay type: in vitro ADME; details: human, cryopreserved human hepatocytes in suspension; cellular drug accumulation ratio; 0.5 µM drug; no chloroquine; geometrical mean ± SD of triplicates
[13] = target: T1, CYP3A (Homo sapiens, UniProt P08684); experiment: in vitro
[14] = cited from earlier work; for ka: absorption rate constant, 35-40 (verapamil); for ka / Fa: ref 5,17 (crizotinib), 19-21 (erythromycin), 22-25 (imatinib), 20,32,33 (roxithromycin), 4,34 (telithromycin); for Cave,ss: average plasma concentration at steady-state; for Fa: fraction absorbed, 6,18 (diltiazem), 26-28 (nefazodone), 29,30 (nilotinib), 29,31 (pazopanib); for Cmax,ss: maximum plasma concentration at steady-state
[15] = test system: transporters; set-up: method as in earlier work; details: cells wrapped over several lines are given as printed fragments; ref DIDB; cited from earlier work
[16] = target: T1, CYP3A; experiment: in vitro; details: microsomes, pH 7.4
[17] = target: T1, CYP3A; details: probe drugs midazolam and simvastatin, in vivo; ref University of Washington Drug Interaction Database; cited from earlier work
[18] = test system: human hepatocytes; experiment: Cytosolic drug accumulation ratio (Kpcyto) and cytosolic bioavailability (Fcyto) in human hepatocytes with chloroquine; assay type: in vitro ADME; details: for Kpcyto: cellular drug accumulation ratio in the presence of chloroquine (100 µM, 45 min), 0.5 µM drug; for Fcyto: cytosolic bioavailability = fu,cell × Kpcyto; for Fcyto / Fic/Fcyto: human hepatocytes; for Fic/Fcyto: ratio of intracellular to cytosolic bioavailability; for Kp compared with Kpcyto: absence vs presence of chloroquine, p ≤ 0.05 in Student’s t-test where called significant
[19] = blood-to-plasma ratio; Predicted within/obtained from Simcyp; ref Simcyp (Simcyp Limited, UK); cited from earlier work
[20] = test system: CYP3A4; details: midazolam; cited from earlier work
[21] = HLM 0.1 mg/ml, read-out: fu,mic at 0.1 mg/ml
[22] = HLM 0.5 mg/ml, read-out: fu,mic at 0.5 mg/ml
[23] = pH 7.4, KI, inactivation constant, HLM 0.5 mg/ml preincubation 0-30 min, midazolam 20 µM, mean ± SD of triplicates
[24] = pH 7.4, KI,u, calculated as fu,mic at 0.5 mg/ml × KI

T1 sequence (P08684 2-503): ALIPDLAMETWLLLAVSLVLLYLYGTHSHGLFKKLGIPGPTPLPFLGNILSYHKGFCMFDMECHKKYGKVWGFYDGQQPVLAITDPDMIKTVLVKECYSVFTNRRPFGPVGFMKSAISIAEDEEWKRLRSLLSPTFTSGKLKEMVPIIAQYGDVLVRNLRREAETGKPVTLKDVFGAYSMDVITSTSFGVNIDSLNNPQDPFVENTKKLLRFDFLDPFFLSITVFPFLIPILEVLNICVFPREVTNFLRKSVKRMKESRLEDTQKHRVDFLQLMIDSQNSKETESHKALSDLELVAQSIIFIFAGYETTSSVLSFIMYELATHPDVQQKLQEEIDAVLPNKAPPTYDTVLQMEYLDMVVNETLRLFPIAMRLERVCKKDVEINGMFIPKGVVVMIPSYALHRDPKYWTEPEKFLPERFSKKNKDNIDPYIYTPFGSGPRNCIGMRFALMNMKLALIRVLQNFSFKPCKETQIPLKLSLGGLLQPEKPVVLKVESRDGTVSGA

Row | Structure (SMILES) | fraction unbound at 4 h, 1 µM [1, 21] | fraction unbound at 4 h, 1 µM [1, 22] | fraction unbound at 4 h [10] | Fic [11] | Kp at 0.5 µM [12] | KI (inactivation) [13, 23] [µM] | KI (inactivation) [13, 24] [µM] | ka [14] [h⁻¹] | Fa [14] | IC50 at 5 min [16] [µM] | Ki at 5 min [16] [µM] | class of CYP3A inhibitor by increase in AUC of the probe drug [17] | Kpcyto [18] | Fcyto [18] | further results
1 | CC[C@H]1OC(=O)[C@H](C)[C@@H](O[C@H]2C[C@@](C)(OC)[C@@H](O)[C@H](C)O2)[C@H](C)[C@@H](O[C@@H]2O[C@H](C)C[C@H](N(C)C)[C@H]2O)[C@](C)(O)C[C@@H](C)CN(C)[C@H](C)[C@@H](O)[C@]1(C)O [Azithromycin] | 0.766 | 0.765 |  |  |  |  |  |  |  |  |  |  |  |  | 
2 | CCN(CC)CCCC(C)Nc1ccnc2cc(Cl)ccc12 (stereo not shown) [Chloroquine] |  |  |  |  |  |  |  |  |  |  |  |  |  |  | IC50 [2]: 150 µM; IC50 [3]: 1.5 µM; IC50 [4]: 13 µM; IC50 [5]: ~100 µM; IC50 [6]: ~50 µM; IC50 [7]: […]; IC50 [8]: 4 µM; Ki [9]: […]
3 | C[C@@H](Oc1cc(-c2cnn(C3CCNCC3)c2)cnc1N)c1c(Cl)ccc(F)c1Cl [Crizotinib] | 0.505 | 0.118 | 0.0006 ± 0.0001 | 0.044 ± 0.005 | 75 ± 0.11 | 0.775 ± 0.13 | 0.091 | 0.817 | 0.4 | > 100 | 97.4 | medium (medium inhibitors causing a ≥2 but <5-fold increase) | 70 ± 0.4 | 0.041 ± 0.005 | Ki ([13]; microsomes, pH 7.4): 0.09 µM; Cave,ss ([14]; 100 mg qd): 45 ng/mL; Cave,ss ([14]; 250 mg bid): 129 ng/mL; Cave,ss ([14]; 300 mg bid): 169 ng/mL; Cmax,ss ([14]; 100 mg qd): 86 ng/mL; Cmax,ss ([14]; 250 mg bid): 327 ng/mL; Cmax,ss ([14]; 300 mg bid): 420 ng/mL; Substrate of other transporters in vitro [15]: OATP1B1/3, 2B1
4 | COc1ccc([C@@H]2Sc3ccccc3N(CCN(C)C)C(=O)[C@@H]2OC(C)=O)cc1 [Diltiazem] | 0.792 | 0.708 |  |  |  |  |  |  |  |  |  |  |  |  | Cmax,ss ([14]; 60 mg tid): 70 ng/mL; Cmax,ss ([14]; 240 mg qd): 166 ng/mL
5 | CC[C@H]1OC(=O)[C@H](C)[C@@H](O[C@H]2C[C@@](C)(OC)[C@@H](O)[C@H](C)O2)[C@H](C)[C@@H](O[C@@H]2O[C@H](C)C[C@H](N(C)C)[C@H]2O)[C@](C)(O)C[C@@H](C)C(=O)[C@H](C)[C@@H](O)[C@]1(C)O [Erythromycin] | 0.64 | 0.586 | 0.0444 ± 0.0013 | 0.066 ± 0.104 | 1.5 ± 2.4 |  |  | 0.6 | 0.65 |  |  |  | 1.2 ± 4.33 | 0.052 ± 0.192 | Cave,ss ([14]; 500 mg tid): 361 ng/mL; Cmax,ss ([14]; 500 mg tid): 821 ng/mL
6 | Cc1ccc(NC(=O)c2ccc(CN3CCN(C)CC3)cc2)cc1Nc1nccc(-c2cccnc2)n1 [Imatinib] |  |  |  |  |  |  |  |  |  |  |  |  |  |  | Cmax,ss ([14]; 400 mg qd): 2,596 ng/ml
7 | CCc1nn(CCCN2CCN(c3cccc(Cl)c3)CC2)c(=O)n1CCOc1ccccc1 [Nefazodone] | 0.187 | 0.18 | 0.0019 ± 0.0001 | 0.015 ± 0.002 | 8.1 ± 1.3 |  |  |  | 1.00 | 2.59 ± 0.22 | 0.242 |  | 11 ± 1.6 | 0.021 ± 0.003 | Cave,ss ([14]; 200 mg bid): 582 ng/mL; Cmax,ss ([14]; 200 mg bid): 1,400 ng/ml; Fic/Fcyto [18]: 0.74
8 | Cc1cn(-c2cc(NC(=O)c3ccc(C)c(Nc4nccc(-c5cccnc5)n4)c3)cc(C(F)(F)F)c2)cn1 [Nilotinib] | 0.195 | 0.121 | 0.0002 | 0.022 ± 0.001 |  | 1.29 ± 0.23 | 0.156 |  | 0.30 | 1.31 ± 0.3 | 0.128 | medium (medium inhibitors causing a ≥2 but <5-fold increase) | 51 ± 9 | 0.008 ± 0.001 | 
9 | Cc1ccc(Nc2nccc(N(C)c3ccc4c(C)n(C)nc4c3)n2)cc1S(N)(=O)=O [Pazopanib] |  |  |  |  |  |  |  |  | 0.80 |  |  |  |  |  | Cave,ss ([14]; 800 mg qd): 30,971 ng/ml; Substrate of other transporters in vitro [15]: OATP1B1/3, OCT1
10 | CC[C@H]1OC(=O)[C@H](C)[C@@H](O[C@H]2C[C@@](C)(OC)[C@@H](O)[C@H](C)O2)[C@H](C)[C@@H](O[C@@H]2O[C@H](C)C[C@H](N(C)C)[C@H]2O)[C@](C)(O)C[C@@H](C)/C(=N\OCOCCOC)[C@H](C)[C@@H](O)[C@]1(C)O [Roxithromycin] | 0.637 | 0.612 | 0.0241 ± 0.0004 | 0.13 ± 0.01 | 5.4 ± 0.3 | 31.4 ± 16.5 | 19.2 | 4.96 | 0.86 | 82.4 ± 44.9 | 26.2 | weak (weak inhibitors causing a ≥1.25 but <2-fold increase) | 3.3 ± 0.75 | 0.08 ± 0.02 | Cave,ss ([14]; 300 mg qd): 5,413 ng/ml; Cmax,ss ([14]; 300 mg qd): 10,900 ng/ml; Kp compared with Kpcyto [18]: significantly larger; Fic/Fcyto [18]: 1.61; B/P [19]: 0.70
11 | CC[C@H]1OC(=O)[C@H](C)C(=O)[C@H](C)[C@@H](O[C@@H]2O[C@H](C)C[C@H](N(C)C)[C@H]2O)[C@](C)(OC)C[C@@H](C)C(=O)[C@H](C)[C@H]2N(CCCCn3cnc(-c4cccnc4)c3)C(=O)O[C@]12C [Telithromycin] | 0.962 | 0.657 | 0.0371 ± 0.0016 | 0.25 ± 0.03 | 6.6 ± 0.6 | 1.49 ± 0.19 | 0.979 | 0.95 | 0.92 | 14.1 ± 3.5 | 6.77 | strong (strong inhibitors of CYP3A, causing a ≥5-fold increase in the area under the concentration-time curve (AUC) of the probe drug) | 7.24 ± 0.8 | 0.27 ± 0.03 | Cave,ss ([14]; 800 mg qd): 425 ng/mL; Cmax,ss ([14]; 800 mg qd): 1,840 ng/ml; Kp compared with Kpcyto [18]: comparable Kp and Kpcyto; Fic/Fcyto [18]: 0.92
12 | Cc1ncc2n1-c1ccc(Cl)cc1C(c1ccccc1F)=NC2 [midazolam, Midazolam] |  |  |  |  |  |  |  |  |  |  |  |  |  |  | fraction metabolized by CYP3A4 (fm) [20]: 0.94; fraction of drug escaping CYP3A4-mediated gut metabolism (FG) [20]: 0.51
